Source: US5569742A (The Salk Institute for Biological Studies, priority 1994, dated 1996)
Positions of bridges follow the written chain, without caps; N, C: chain ends. Residues, ends and D or L forms follow the SMILES beside them.

Columns and labels:
NPY Y1 receptor = molecular target: T1, NPY Y1 receptor (Homo sapiens, UniProt P25929); assay: Receptor binding assay, displacement of [125I]PYY from SK-N-MC cells
T1 construct: The human SK-N-MC cell line expresses the Y1 receptor subtype; endogenous in cells; host or cells: SK-N-MC human neuroblastoma cells (intact, plated cells)
T1 sequence (P25929 1-384): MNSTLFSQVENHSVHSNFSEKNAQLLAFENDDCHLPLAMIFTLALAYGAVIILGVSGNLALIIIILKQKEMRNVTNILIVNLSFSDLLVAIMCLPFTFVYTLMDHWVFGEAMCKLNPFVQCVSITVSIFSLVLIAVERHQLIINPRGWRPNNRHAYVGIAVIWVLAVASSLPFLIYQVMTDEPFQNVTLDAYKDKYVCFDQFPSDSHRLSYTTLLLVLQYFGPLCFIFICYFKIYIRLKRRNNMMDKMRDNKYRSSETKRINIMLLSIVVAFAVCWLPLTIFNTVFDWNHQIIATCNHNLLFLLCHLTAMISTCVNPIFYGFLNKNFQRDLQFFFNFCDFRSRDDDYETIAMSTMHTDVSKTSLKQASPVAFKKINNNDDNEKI
Description: (§1) Receptor binding assays are performed using the human neuroblastoma SK-N-MC cells Y1 receptors) and the SK-N-BE(2) cells (Y2 receptors). Cells are grown to confluence in […], trypsinized, and plated into 24 microwells plates (10^5 cells per well). Media for SK-N-MC cells is MEM Eagles (500 mL) buffer, containing L-glutamine (10 Ml, 200 mM, penicillin/streptomycin (5 Ml.10 000 mg/mL), nonessential amino acids (5 mL, 11 mg/mL), fetal calf serum (50 mL, 10%), and 500 μL of fungiyorl. Media for SK-N-BE(2) cells is DME-F12 (500 mL) buffer, containing L-glutamine (10 mL, 200 mM), penicillin/streptomycin (5 mL, 10 000 mg/mL), fetal calf serum (50 mL, 10%), and 500 μL of fungiyorl. After 1 day for the SK-N-BE(2) and 2 days for the SK-N-MC, the cells are grown to the appropriate density and are used for binding assays
(§2) Peptides to be tested are prealiquoted at 100 μg/Ml in 100 μL of solution in MILLI-Q™ water (Millipore, U.S.A.). Solutions of peptides in different concentrations (seven doses from 10^-6 to 10^-10 M) are prepared in binding buffer (0.30M sucrose, 10 mM HEPES, 0.1% BSA, and pH is adjusted to 7.4 with NaOH).

NPY Y2 receptor = molecular target: T2, NPY Y2 receptor (Homo sapiens, UniProt P49146); assay: Receptor binding assay, displacement of [125I]PYY from SK-N-BE2 cells
T2 construct: Functional Y2 receptors have been identified on the cell line SK-N-BE2; endogenous in cells; host or cells: SK-N-BE(2) human neuroblastoma cells (intact, plated cells)
T2 sequence (P49146 1-381): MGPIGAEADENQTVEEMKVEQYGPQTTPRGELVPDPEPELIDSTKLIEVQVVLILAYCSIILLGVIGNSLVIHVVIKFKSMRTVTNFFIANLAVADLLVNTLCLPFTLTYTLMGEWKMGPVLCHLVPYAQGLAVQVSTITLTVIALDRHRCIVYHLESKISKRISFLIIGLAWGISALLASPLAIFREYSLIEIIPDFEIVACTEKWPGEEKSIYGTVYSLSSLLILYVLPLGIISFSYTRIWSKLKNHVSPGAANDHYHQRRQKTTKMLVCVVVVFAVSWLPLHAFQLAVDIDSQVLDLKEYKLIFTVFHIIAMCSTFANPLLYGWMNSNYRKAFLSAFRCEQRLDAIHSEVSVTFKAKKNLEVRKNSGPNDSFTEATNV
Description: as §1, §2

CC[C@H](C)[C@H](NC(=O)[C@H](Cc1ccc(O)cc1)NC(=O)[C@H](Cc1c[nH]cn1)NC(=O)[C@H](CCCNC(=N)N)NC(=O)[C@H](CC(C)C)NC(=O)[C@H](C)NC(=O)[C@H](CO)NC(=O)[C@@H]1CSSC[C@H](NC(=O)[C@H](CC(=O)O)NC(=O)[C@@H]2CCCN2C(=O)[C@H](CCCCN)NC(=O)[C@H](CO)NC(=O)[C@@H]2CCCN2C(=O)[C@@H](N)Cc2ccc(O)cc2)C(=O)N2CCC[C@H]2C(=O)NCC(=O)N1)C(=O)N[C@@H](CC(N)=O)C(=O)N[C@@H](CC(C)C)C(=O)N[C@H](C(=O)N[C@H](C(=O)N[C@@H](CCCNC(=N)N)C(=O)N1CCC[C@H]1C(=O)N[C@@H](CCCNC(=N)N)C(=O)N[C@@H](Cc1ccc(O)cc1)C(N)=O)[C@@H](C)O)[C@@H](C)CC [SEQ ID NO:8] (H-YPSKPDCPGCSALRHYINLITRPRY-NH2; disulfide 7-10)
Ki (NPY Y1 receptor): 0.032 µM | Ki (NPY Y2 receptor): > 1 µM
